The text below walks through data of ChEMBL document CHEMBL5131445, “Optimization of a novel piperazinone series as potent selective peripheral covalent BTK inhibitors” (Bioorg Med Chem Lett, 2022).

pIC50, pKd: −log10 of the molar value. In brackets after ≈: the same amount, converted by molar mass. A value given as a limit tells only on which side of the number the result lay.

What is called pKd is the negative decadic logarithm of the Kd, by convention in mol/L. The clearance is a measure of how efficiently the substance is removed, as volume per time. As usually defined, the fraction unbound is the share of the substance not bound to proteins or other matrix. One may read the pIC50 as the IC50 on a negative log10 scale, so that one unit is a factor of ten.

For data set [1], the target named is Receptor tyrosine-protein kinase erbB-4 (Homo sapiens, UniProt Q15303). Briefly: Binding affinity to ERBB4 (unknown origin) assessed as dissociation constant by KINOMEscan analysis.
Sequence of Receptor tyrosine-protein kinase erbB-4 (Q15303 whole entry): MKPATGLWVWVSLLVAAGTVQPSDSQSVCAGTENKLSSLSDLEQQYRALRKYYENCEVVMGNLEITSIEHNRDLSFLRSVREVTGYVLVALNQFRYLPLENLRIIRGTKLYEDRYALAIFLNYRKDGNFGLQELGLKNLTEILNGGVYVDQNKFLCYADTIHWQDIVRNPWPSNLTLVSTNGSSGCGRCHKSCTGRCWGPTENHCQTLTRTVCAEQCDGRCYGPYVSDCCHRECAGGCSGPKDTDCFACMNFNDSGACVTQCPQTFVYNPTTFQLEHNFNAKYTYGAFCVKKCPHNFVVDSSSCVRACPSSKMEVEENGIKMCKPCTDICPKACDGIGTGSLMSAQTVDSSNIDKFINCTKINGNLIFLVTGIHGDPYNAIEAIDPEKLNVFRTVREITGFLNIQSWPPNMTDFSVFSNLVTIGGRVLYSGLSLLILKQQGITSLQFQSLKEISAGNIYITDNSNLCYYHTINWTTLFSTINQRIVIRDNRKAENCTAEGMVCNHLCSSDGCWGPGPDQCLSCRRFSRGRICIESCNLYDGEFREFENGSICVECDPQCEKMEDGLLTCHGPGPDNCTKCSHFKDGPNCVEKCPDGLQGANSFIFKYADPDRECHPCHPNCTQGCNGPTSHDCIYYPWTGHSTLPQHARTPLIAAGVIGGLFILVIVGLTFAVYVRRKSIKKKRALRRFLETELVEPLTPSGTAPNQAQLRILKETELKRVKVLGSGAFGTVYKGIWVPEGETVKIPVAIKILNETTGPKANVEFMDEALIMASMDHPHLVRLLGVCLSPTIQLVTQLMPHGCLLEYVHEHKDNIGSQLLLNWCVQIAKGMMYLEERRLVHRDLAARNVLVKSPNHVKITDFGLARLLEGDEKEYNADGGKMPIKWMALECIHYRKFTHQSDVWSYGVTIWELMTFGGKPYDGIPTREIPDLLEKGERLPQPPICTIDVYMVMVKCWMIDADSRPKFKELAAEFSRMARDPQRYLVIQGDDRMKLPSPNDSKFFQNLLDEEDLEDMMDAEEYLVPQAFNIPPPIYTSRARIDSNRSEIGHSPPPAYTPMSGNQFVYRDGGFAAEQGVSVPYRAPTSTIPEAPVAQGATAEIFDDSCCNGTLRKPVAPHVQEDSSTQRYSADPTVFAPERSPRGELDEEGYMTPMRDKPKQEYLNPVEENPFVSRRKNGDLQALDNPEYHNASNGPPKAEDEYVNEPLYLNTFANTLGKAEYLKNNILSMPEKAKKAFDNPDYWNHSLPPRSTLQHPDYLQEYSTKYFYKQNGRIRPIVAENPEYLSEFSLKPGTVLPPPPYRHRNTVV
Data set [2] in a line: Clearance in iv dosed Sprague-Dawley rat. In kind it is ADME, organism-based. As to conditions: in vivo.
Data set [3] is described as follows: Plasma protein binding in rat assessed as unbound fraction by rapid equilibrium dialysis method. It is filed as ADME, cell-free.
For data set [4], the target named is Tyrosine-protein kinase BTK (Homo sapiens, UniProt Q06187). Briefly: Binding affinity to BTK (unknown origin) assessed as dissociation constant by KINOMEscan analysis.
Sequence of Tyrosine-protein kinase BTK (Q06187 whole entry): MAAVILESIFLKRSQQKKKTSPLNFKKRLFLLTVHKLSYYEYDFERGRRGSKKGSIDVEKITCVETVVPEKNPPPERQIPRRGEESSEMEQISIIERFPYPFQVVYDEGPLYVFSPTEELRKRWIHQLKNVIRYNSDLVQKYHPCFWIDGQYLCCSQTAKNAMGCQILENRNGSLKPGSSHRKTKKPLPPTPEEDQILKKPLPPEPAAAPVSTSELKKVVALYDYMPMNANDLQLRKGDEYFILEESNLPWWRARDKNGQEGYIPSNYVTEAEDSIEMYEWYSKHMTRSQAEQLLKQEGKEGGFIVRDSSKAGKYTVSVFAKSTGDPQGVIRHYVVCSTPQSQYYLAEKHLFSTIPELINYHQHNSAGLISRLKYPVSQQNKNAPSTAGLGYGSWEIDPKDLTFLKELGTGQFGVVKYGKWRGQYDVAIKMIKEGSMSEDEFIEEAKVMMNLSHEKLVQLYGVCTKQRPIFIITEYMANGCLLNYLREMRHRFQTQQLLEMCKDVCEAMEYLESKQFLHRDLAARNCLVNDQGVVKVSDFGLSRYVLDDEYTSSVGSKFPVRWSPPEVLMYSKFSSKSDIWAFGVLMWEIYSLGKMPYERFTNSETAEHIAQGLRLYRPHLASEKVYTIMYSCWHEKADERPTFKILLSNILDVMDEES
For data set [5], the target named is Epidermal growth factor receptor (Homo sapiens, UniProt P00533). Briefly: Binding affinity to EGFR (unknown origin) assessed as dissociation constant by KINOMEscan analysis.
Sequence of Epidermal growth factor receptor (P00533 whole entry): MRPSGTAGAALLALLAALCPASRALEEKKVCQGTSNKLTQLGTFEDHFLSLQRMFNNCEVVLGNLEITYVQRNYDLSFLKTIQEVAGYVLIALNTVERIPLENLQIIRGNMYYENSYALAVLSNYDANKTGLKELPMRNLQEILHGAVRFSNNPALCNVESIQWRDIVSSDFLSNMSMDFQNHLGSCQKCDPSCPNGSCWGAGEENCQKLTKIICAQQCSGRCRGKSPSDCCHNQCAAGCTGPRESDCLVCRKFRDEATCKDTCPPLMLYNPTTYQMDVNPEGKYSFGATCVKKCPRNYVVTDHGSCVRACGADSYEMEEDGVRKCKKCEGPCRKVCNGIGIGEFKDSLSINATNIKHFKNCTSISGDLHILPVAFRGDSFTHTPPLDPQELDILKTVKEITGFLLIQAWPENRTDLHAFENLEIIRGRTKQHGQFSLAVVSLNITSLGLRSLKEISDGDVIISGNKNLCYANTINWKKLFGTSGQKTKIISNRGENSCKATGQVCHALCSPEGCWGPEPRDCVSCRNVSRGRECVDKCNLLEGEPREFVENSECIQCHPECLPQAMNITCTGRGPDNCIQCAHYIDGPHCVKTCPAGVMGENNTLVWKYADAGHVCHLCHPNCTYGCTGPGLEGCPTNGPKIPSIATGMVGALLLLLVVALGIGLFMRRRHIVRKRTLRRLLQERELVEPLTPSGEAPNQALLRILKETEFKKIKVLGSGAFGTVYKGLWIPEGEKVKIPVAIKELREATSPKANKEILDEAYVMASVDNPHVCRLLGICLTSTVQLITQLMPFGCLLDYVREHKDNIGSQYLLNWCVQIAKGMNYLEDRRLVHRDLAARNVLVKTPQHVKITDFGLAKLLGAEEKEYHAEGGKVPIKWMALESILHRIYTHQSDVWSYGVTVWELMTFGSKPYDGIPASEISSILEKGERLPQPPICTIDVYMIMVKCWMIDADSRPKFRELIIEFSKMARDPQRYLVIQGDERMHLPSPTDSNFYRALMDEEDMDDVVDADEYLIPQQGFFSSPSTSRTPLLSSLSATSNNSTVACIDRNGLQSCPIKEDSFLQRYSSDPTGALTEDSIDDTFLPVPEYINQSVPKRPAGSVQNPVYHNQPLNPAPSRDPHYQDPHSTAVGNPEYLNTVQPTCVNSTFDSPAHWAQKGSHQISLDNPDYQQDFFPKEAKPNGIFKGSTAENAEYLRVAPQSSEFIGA
Data set [6] has as its target T1, Tyrosine-protein kinase Tec (Homo sapiens, UniProt P42680).
T1 sequence (P42680 whole entry): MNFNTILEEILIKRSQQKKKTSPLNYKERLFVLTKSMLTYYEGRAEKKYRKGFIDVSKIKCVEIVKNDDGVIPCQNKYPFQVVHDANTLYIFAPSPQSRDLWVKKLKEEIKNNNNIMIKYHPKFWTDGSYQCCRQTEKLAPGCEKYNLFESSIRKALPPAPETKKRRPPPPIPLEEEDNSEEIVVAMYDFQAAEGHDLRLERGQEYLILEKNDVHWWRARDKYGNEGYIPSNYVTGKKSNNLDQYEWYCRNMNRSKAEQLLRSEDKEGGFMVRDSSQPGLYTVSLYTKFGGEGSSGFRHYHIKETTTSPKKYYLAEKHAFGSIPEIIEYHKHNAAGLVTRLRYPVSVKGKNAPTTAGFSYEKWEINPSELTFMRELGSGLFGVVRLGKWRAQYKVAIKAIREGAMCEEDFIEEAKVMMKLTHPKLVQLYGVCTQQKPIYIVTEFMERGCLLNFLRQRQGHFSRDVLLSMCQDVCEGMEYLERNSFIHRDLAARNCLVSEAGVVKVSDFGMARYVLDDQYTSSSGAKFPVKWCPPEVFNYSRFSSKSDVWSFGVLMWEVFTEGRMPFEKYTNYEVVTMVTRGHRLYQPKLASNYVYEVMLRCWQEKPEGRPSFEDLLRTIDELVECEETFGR
Briefly: Binding affinity to TEC (unknown origin) assessed as dissociation constant by KINOMEscan analysis.

For data set [7], the target named is T2, Tyrosine-protein kinase TXK (Homo sapiens, UniProt P42681).
T2 sequence (P42681 whole entry): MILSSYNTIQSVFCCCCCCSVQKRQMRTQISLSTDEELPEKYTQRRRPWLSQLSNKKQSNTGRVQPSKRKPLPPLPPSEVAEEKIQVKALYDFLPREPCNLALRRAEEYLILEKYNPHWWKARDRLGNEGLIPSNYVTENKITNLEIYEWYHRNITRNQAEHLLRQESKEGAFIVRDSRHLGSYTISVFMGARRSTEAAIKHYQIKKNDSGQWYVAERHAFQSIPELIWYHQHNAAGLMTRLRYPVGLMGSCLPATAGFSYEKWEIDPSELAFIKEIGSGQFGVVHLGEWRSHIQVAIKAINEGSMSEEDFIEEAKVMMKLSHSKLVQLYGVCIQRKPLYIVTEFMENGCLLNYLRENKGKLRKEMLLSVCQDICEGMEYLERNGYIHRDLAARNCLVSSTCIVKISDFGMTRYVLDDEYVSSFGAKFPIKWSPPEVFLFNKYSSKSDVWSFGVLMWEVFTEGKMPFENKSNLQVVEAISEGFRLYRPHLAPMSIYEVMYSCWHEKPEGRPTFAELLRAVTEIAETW
The data set is described as follows: Binding affinity to TXK (unknown origin) assessed as dissociation constant by KINOMEscan analysis.

The target of the next data set is T3, Cytochrome P450 1A2 (Homo sapiens, UniProt P05177).
T3 sequence (P05177 whole entry): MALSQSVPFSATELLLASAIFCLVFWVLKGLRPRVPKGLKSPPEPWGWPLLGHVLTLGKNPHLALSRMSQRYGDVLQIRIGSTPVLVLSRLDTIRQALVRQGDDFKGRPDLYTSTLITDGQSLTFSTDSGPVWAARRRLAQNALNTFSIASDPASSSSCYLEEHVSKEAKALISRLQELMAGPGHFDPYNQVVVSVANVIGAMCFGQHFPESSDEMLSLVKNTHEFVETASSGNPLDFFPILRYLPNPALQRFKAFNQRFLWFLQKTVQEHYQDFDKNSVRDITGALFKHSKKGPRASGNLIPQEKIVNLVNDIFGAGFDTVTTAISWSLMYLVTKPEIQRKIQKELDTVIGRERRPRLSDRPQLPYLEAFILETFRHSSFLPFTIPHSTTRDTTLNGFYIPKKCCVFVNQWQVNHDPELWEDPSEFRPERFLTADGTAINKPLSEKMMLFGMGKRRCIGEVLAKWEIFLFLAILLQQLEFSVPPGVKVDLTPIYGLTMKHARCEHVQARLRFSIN
The data set is described as follows: Inhibition of human CYP1A2. It is filed as ADME.

Another data set deals with T4, Cytochrome P450 2B6 (Homo sapiens, UniProt P20813).
T4 sequence (P20813 whole entry): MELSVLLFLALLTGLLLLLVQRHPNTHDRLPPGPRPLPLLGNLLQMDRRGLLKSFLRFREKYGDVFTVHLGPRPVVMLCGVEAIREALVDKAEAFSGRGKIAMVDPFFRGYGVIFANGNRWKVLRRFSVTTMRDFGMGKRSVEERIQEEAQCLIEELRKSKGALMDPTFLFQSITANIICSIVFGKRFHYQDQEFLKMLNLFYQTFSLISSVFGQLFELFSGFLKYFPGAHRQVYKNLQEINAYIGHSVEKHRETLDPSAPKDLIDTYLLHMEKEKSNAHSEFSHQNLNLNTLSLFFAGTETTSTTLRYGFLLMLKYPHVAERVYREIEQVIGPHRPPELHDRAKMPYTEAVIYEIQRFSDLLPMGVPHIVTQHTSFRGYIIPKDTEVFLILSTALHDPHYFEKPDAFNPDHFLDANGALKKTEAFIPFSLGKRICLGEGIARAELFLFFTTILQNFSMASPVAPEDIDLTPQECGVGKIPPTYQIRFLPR
Briefly: Inhibition of human CYP2B6. It is filed as ADME.

In a further data set the target is Cytochrome P450 2C9 (Homo sapiens, UniProt P11712). Briefly: Inhibition of human CYP2C9. In kind it is ADME.
Sequence of Cytochrome P450 2C9 (P11712 whole entry): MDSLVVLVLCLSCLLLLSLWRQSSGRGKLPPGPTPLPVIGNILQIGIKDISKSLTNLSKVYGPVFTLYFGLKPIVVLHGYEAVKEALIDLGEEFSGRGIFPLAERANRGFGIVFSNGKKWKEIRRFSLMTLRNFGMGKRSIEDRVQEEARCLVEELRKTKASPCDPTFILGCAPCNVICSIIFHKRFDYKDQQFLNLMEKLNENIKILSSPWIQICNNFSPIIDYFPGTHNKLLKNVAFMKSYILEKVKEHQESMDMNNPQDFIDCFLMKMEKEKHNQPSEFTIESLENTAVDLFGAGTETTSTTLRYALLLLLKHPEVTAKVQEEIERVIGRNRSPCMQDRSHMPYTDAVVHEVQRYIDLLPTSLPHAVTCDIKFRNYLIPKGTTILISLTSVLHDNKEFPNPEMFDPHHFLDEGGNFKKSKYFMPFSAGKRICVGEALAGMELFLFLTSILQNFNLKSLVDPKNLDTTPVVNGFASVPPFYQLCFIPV
A further data set concerns MDR1. Briefly: Permeability across apical to basolateral side in dog MDCK-MDR1 cells. It is filed as ADME, cell-based, Canis lupus familiaris. As to conditions: read-out: permeability.
Data set [8] is described as follows: Kinetic aqueous solubility of the compound at pH 1.5 by shake flask assay. In kind it is physicochemical. Conditions: read-out: Kinetic_solubility.

In the case of `C=CC(=O)N(C)CCOc1c(N)ncnc1-c1ccc(CN2CCN(CC(C)C)CC2=O)c(C)c1`, the negative logarithm of the Kd (pKd) is 6.05 in [1]; 9.04 in data set [4]; 4.52 in data set [5]; 6.62 in [6]; 5.19 in data set [7]. This compound also displayed a clearance in [2] of 126 mL/min/kg. Moreover, the free fraction (fraction unbound) in data set [3] came to 0.169. For the same compound, the pIC50 at Cytochrome P450 1A2, on Cytochrome P450 2B6 and against Cytochrome P450 2C9 was under 5.00 throughout. For the same compound, the Papp A→B with MDR1 was found to be 0.32 ×10⁻⁶ cm/s. For the same compound, in [8], the solubility kinetic amounted to 73 µg/mL (≈ 152 µM).
